{"source": "patent US11542240B2", "about": "“STK19 inhibitors for treatment of cancer” (TRUSTEES OF BOSTON UNIVERSITY, priority 2018, dated 2023)", "assay_in_all_cases": "biochemical", "assay_type_in_all_cases": "binding", "key": {"[1]": {"target": "panel of 468 diverse kinases (Homo sapiens, UniProt P51955)", "conditions": "NEK2; 1000 nM; read-out: Percent Control"}, "[2]": {"target": "panel of 468 diverse kinases (Homo sapiens, UniProt Q02156)", "conditions": "PRKCE; 1000 nM; read-out: Percent Control"}, "[3]": {"target": "panel of 468 diverse kinases (Homo sapiens, UniProt Q16584)", "conditions": "MLK3; 1000 nM; read-out: Percent Control"}, "[4]": {"system": "panel of 468 diverse kinases"}, "[5]": {"target": "panel of 468 diverse kinases (Homo sapiens, UniProt P19784)", "conditions": "CSNK2A2; 1000 nM; read-out: Percent Control"}, "[6]": {"target": "panel of 468 diverse kinases (Homo sapiens, UniProt O14965)", "conditions": "AURKA; 1000 nM; read-out: Percent Control"}, "[7]": {"target": "panel of 468 diverse kinases (Homo sapiens, UniProt Q9H2X6)", "conditions": "HIPK2; 1000 nM; read-out: Percent Control"}, "[8]": {"target": "panel of 468 diverse kinases (Homo sapiens, UniProt Q5S007, G2019S)", "conditions": "LRRK2(G2019S); 1000 nM; read-out: Percent Control"}, "[9]": {"target": "panel of 468 diverse kinases (Homo sapiens, UniProt Q5S007)", "conditions": "LRRK2; 1000 nM; read-out: Percent Control"}, "[10]": {"target": "panel of 468 diverse kinases (Homo sapiens, UniProt P21127)", "conditions": "CDC2L1; 1000 nM; read-out: Percent Control"}, "[11]": {"target": "panel of 468 diverse kinases (Homo sapiens, UniProt P35916)", "sequence (P35916 25-1363 limits assumed)": "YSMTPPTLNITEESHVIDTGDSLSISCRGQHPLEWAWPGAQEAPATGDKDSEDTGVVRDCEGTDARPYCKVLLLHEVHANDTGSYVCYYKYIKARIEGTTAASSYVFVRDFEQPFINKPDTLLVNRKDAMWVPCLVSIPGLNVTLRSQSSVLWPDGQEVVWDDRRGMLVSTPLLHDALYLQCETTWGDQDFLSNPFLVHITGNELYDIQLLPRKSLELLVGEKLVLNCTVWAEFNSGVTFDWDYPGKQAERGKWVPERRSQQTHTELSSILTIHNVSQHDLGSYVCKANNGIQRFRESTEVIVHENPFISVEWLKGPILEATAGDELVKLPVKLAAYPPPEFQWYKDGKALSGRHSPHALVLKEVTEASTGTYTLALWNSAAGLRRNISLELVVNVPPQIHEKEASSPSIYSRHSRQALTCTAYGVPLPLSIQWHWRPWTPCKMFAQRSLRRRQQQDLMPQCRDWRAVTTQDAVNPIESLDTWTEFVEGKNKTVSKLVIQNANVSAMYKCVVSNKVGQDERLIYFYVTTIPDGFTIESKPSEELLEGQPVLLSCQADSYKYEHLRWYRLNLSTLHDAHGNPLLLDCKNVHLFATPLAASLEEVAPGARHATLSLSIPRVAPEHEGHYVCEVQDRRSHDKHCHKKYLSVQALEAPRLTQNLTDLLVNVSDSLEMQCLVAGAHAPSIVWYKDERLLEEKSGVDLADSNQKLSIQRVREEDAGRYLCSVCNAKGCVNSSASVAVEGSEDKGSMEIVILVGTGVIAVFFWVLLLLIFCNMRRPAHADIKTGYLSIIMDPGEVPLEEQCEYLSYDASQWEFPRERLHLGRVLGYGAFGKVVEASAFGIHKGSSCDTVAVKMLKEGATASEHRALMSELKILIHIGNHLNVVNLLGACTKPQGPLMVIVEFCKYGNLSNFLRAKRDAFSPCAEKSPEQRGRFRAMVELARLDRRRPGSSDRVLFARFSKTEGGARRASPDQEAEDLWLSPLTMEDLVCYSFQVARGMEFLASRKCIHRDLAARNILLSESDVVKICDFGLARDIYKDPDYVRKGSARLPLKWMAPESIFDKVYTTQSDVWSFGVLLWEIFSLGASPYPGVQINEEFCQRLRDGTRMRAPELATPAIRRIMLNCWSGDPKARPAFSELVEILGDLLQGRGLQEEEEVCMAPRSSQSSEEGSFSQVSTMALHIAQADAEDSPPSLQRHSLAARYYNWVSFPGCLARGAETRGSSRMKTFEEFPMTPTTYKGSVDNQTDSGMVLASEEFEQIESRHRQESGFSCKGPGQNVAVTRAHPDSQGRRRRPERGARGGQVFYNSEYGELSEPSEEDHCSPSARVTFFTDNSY", "conditions": "FLT4; 1000 nM; read-out: Percent Control"}, "[12]": {"target": "panel of 468 diverse kinases (Homo sapiens, UniProt Q14289)", "conditions": "PYK2; 1000 nM; read-out: Percent Control"}, "[13]": {"target": "panel of 468 diverse kinases (Homo sapiens, UniProt Q13464)", "sequence (Q13464 2-1354 limits assumed)": "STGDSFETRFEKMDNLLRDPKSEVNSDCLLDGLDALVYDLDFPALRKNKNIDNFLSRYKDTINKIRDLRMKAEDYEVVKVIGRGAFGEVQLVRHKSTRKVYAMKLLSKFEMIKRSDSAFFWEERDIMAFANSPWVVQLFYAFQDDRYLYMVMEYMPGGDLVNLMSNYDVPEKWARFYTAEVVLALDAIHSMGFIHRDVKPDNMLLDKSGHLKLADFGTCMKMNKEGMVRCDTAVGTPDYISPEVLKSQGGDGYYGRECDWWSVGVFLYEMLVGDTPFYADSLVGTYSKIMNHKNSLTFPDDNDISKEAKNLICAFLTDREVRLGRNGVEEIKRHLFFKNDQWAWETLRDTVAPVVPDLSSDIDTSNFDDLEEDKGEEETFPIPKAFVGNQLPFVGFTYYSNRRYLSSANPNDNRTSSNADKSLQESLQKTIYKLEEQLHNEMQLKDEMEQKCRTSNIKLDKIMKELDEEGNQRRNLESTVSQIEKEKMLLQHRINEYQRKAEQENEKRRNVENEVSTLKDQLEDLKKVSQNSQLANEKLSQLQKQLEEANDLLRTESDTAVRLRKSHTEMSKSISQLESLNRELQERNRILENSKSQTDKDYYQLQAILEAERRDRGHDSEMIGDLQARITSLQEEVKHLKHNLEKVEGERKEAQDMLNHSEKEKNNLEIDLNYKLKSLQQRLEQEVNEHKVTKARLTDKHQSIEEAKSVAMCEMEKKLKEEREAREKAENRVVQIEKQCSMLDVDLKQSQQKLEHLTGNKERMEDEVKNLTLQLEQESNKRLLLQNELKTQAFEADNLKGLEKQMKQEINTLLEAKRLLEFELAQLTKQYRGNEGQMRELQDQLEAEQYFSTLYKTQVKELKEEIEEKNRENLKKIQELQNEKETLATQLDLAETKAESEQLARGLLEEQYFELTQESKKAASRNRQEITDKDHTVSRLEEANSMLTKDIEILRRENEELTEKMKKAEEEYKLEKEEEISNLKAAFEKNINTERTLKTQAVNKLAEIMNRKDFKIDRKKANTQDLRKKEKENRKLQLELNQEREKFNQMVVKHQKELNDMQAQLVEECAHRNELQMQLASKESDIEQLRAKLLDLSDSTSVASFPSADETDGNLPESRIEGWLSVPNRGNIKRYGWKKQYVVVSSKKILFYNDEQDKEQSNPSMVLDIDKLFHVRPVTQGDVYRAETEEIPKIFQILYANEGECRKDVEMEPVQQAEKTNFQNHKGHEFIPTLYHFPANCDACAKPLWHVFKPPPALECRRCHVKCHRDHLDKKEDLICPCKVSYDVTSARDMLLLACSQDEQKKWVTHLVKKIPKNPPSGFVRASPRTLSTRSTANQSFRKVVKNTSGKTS", "conditions": "ROCK1; 1000 nM; read-out: Percent Control"}, "[14]": {"target": "panel of 468 diverse kinases (Homo sapiens, UniProt Q6DT37)", "conditions": "DMPK2; 1000 nM; read-out: Percent Control"}, "[15]": {"target": "panel of 468 diverse kinases (Homo sapiens, UniProt Q9HBH9)", "conditions": "MKNK2; 1000 nM; read-out: Percent Control"}, "[16]": {"target": "panel of 468 diverse kinases (Homo sapiens, UniProt P35626)", "conditions": "GRK3; 1000 nM; read-out: Percent Control"}, "[17]": {"target": "panel of 468 diverse kinases (Homo sapiens, UniProt Q9BZL6)", "conditions": "PRKD2; 1000 nM; read-out: Percent Control"}, "[18]": {"target": "panel of 468 diverse kinases (Homo sapiens, UniProt Q8TBX8)", "sequence (Q8TBX8 2-421 limits assumed)": "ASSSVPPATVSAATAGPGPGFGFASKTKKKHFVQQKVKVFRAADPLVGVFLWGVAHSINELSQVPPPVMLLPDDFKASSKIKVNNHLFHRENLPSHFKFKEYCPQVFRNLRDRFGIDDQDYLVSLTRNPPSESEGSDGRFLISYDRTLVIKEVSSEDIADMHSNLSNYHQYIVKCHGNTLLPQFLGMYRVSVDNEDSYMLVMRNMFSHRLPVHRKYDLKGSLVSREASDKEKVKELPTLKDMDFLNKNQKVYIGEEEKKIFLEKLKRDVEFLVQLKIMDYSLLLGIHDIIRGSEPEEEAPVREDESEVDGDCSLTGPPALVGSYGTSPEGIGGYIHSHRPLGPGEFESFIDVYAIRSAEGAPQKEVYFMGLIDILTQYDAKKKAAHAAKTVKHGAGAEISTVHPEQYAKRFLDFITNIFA", "conditions": "PIP5K2C; 1000 nM; read-out: Percent Control"}, "[19]": {"target": "panel of 468 diverse kinases (Homo sapiens, UniProt Q9H093)", "conditions": "SNARK; 1000 nM; read-out: Percent Control"}, "[20]": {"target": "panel of 468 diverse kinases (Homo sapiens, UniProt P07949, V804L)", "sequence (P07949 29-1114 V804L limits assumed)": "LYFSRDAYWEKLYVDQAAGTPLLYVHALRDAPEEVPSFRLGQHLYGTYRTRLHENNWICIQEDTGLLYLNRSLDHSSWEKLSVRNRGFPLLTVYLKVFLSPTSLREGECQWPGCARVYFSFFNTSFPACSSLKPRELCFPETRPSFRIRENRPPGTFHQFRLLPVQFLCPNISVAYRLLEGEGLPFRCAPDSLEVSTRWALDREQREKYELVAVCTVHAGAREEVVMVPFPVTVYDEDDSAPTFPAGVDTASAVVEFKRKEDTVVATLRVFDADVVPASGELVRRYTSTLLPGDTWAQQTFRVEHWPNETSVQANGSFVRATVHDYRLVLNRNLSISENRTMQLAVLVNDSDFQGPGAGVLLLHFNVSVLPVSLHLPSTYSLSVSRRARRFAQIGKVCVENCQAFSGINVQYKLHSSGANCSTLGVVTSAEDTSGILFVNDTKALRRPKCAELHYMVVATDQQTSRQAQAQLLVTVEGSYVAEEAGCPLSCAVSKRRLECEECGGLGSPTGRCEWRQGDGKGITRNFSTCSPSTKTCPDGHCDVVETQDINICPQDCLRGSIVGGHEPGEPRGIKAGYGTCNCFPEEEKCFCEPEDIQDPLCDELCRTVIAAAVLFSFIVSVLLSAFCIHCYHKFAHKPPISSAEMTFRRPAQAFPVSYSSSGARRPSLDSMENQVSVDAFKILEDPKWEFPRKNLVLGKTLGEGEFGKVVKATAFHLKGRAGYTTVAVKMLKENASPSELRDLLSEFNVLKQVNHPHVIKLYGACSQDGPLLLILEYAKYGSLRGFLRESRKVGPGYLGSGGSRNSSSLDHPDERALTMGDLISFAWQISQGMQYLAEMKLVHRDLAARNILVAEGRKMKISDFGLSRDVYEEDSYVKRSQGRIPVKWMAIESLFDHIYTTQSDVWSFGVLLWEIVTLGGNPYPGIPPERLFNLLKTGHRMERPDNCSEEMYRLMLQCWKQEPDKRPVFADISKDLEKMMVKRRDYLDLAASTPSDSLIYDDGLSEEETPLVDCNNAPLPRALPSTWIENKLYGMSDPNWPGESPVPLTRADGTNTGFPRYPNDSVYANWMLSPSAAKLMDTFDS", "conditions": "RET(V804L); 1000 nM; read-out: Percent Control"}, "[21]": {"target": "panel of 468 diverse kinases (Homo sapiens, UniProt Q7L7X3)", "conditions": "TAOK1; 1000 nM; read-out: Percent Control"}, "[22]": {"target": "panel of 468 diverse kinases (Homo sapiens, UniProt P00519, Y253F)", "conditions": "ABL1(Y253F)-phosphorylated; 1000 nM; read-out: Percent Control"}, "[23]": {"target": "panel of 468 diverse kinases (Homo sapiens, UniProt O75116)", "conditions": "ROCK2; 1000 nM; read-out: Percent Control"}, "[24]": {"target": "panel of 468 diverse kinases (Homo sapiens, UniProt Q14680)", "conditions": "MELK; 1000 nM; read-out: Percent Control"}, "[25]": {"target": "panel of 468 diverse kinases (Homo sapiens, UniProt Q86YV6)", "conditions": "MYLK4; 1000 nM; read-out: Percent Control"}, "[26]": {"target": "panel of 468 diverse kinases (Homo sapiens, UniProt Q05655)", "conditions": "PRKCD; 1000 nM; read-out: Percent Control"}, "[27]": {"target": "panel of 468 diverse kinases (Homo sapiens, UniProt P42336, Q546K)", "conditions": "PIK3CA(Q546K); 1000 nM; read-out: Percent Control"}, "[28]": {"target": "panel of 468 diverse kinases (Homo sapiens, UniProt P42345)", "conditions": "MTOR; 1000 nM; read-out: Percent Control"}, "[29]": {"target": "panel of 468 diverse kinases (Homo sapiens, UniProt Q9P289)", "sequence (Q9P289 2-416 limits assumed)": "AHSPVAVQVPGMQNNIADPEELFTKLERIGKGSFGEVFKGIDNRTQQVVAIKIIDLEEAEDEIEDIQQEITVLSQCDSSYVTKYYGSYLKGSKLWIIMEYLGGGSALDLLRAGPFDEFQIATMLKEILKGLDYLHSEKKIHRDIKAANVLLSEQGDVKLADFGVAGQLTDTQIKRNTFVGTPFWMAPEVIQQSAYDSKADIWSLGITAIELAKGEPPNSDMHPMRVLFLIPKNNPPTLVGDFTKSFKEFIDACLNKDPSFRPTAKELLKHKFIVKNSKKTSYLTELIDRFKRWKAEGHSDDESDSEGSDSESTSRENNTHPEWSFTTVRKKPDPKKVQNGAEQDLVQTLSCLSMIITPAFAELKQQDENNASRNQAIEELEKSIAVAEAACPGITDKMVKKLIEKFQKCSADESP", "conditions": "MST4; 1000 nM; read-out: Percent Control"}, "[30]": {"target": "panel of 468 diverse kinases (Homo sapiens, UniProt P50750)", "conditions": "CDK9; 1000 nM; read-out: Percent Control"}, "[31]": {"target": "panel of 468 diverse kinases (Homo sapiens, UniProt Q9BXA7)", "conditions": "TSSK1B; 1000 nM; read-out: Percent Control"}}, "note": "“And” between values parts separate entries of the source, which are not always exact repeats. Identical values can stand only once."}
{"smiles": "COc1cc2nc(NC3CC3)nc(NC3CCN(C(C)C)CC3)c2cc1OC", "note": "[Formula IV]", "values": [{"measurement": "remaining activity at 1 µM", "setting": "[1]", "result": 100, "unit": "%"}, {"measurement": "remaining activity at 1 µM", "setting": "[2]", "result": 100, "unit": "%"}, {"measurement": "remaining activity at 1 µM", "setting": "[3]", "result": 93, "unit": "%"}, {"measurement": "Percent Control", "setting": "[4]", "result": "98% and 49% and 80% and 92% and 56% and 57%"}, {"measurement": "kinase selectivity using KINOMEscan", "setting": "[4]", "result": "extremely high kinase selectivity"}, {"measurement": "remaining activity at 1 µM", "setting": "[5]", "result": 63, "unit": "%"}, {"measurement": "remaining activity at 1 µM", "setting": "[6]", "result": 56, "unit": "%"}, {"measurement": "remaining activity at 1 µM", "setting": "[7]", "result": 64, "unit": "%"}, {"measurement": "remaining activity at 1 µM", "setting": "[8]", "result": 54, "unit": "%"}, {"measurement": "remaining activity at 1 µM", "setting": "[9]", "result": 71, "unit": "%"}, {"measurement": "remaining activity at 1 µM", "setting": "[10]", "result": 100, "unit": "%"}, {"measurement": "remaining activity at 1 µM", "setting": "[11]", "result": 80, "unit": "%"}, {"measurement": "remaining activity at 1 µM", "setting": "[12]", "result": 93, "unit": "%"}, {"measurement": "remaining activity at 1 µM", "setting": "[13]", "result": 45, "unit": "%"}, {"measurement": "remaining activity at 1 µM", "setting": "[14]", "result": 99, "unit": "%"}, {"measurement": "remaining activity at 1 µM", "setting": "[15]", "result": 82, "unit": "%"}, {"measurement": "remaining activity at 1 µM", "setting": "[16]", "result": 53, "unit": "%"}, {"measurement": "remaining activity at 1 µM", "setting": "[17]", "result": 64, "unit": "%"}, {"measurement": "remaining activity at 1 µM", "setting": "[18]", "result": 80, "unit": "%"}, {"measurement": "remaining activity at 1 µM", "setting": "[19]", "result": 57, "unit": "%"}, {"measurement": "remaining activity at 1 µM", "setting": "[20]", "result": 75, "unit": "%"}, {"measurement": "remaining activity at 1 µM", "setting": "[21]", "result": 100, "unit": "%"}, {"measurement": "remaining activity at 1 µM", "setting": "[22]", "result": 100, "unit": "%"}, {"measurement": "remaining activity at 1 µM", "setting": "[23]", "result": 49, "unit": "%"}, {"measurement": "remaining activity at 1 µM", "setting": "[24]", "result": 85, "unit": "%"}, {"measurement": "remaining activity at 1 µM", "setting": "[25]", "result": 93, "unit": "%"}, {"measurement": "remaining activity at 1 µM", "setting": "[26]", "result": 97, "unit": "%"}, {"measurement": "remaining activity at 1 µM", "setting": "[27]", "result": 54, "unit": "%"}, {"measurement": "remaining activity at 1 µM", "setting": "[28]", "result": 87, "unit": "%"}, {"measurement": "remaining activity at 1 µM", "setting": "[29]", "result": 82, "unit": "%"}, {"measurement": "remaining activity at 1 µM", "setting": "[30]", "result": 100, "unit": "%"}, {"measurement": "remaining activity at 1 µM", "setting": "[31]", "result": 85, "unit": "%"}]}
